In patent publication US11339157B1, “4H-pyrrolo[3,2-c]pyridin-4-one derivatives” (Bayer Aktiengesellschaft, priority 2017, dated 2022):

Experiments:
[1] = tested on: Ba/F3-EGFR-WT cells; experiment: Proliferation assay in BA/F3 (wild type) cells (Cell Titer-Glo); assay type: cell-based; conditions: Mus musculus
Method: (§1) Cellular Data Description (WT, insSVD, Ins ASV)
(§2) Plates were incubated at 37° C. for 48 h. Retrovirus was harvested by filtering the media supernatant through a 0.45 μm filter.
(§3) Ba/F3 cells purchased from DSMZ were grown in RPMI+10% FBS+10 ng/mL IL-3 and infected with filtered retroviral supernatant at a 1:2 dilution. Polybrene was added to a concentration of 8 μg/mL, plates were spun for 90 min, and incubated overnight at 37° C. 2 μg/mL puromycin was added to the infected cells 24 h after infection and cells were continually grown in the presence of puromycin and 10 ng/mL IL-3. Following stably expressing Ba/F3 cell lines were generated: Ba/F3-EGFR-WT, Ba/F3-EGFR-insSVD.
(§4) The cells ectopically expressing WT EGFR were plated with 10 ng/mL Millipore Culture grade EGF. The cells ectopically expressing EGFR-insSVD were plated without EGF.
(§5) 100 nL of compound was added to each well using a 100 nL pin head, and plates were incubated at 37° C. for 48 h.
(§6) Cell viability was measured by adding 30 μL of Cell Titer-Glo Luminescent Cell Viability Reagent. Plates were sealed with Perkin Elmer Top-Seal, inverted several times to mix, and immediately centrifuged at 1000 rpm for 2 min. Plates were incubated in low light conditions for 8-10 min and luminescence was measured.

[2] = tested on: Ba/F3-EGFR-insSVD cells; experiment: Proliferation assay in BA/F3 (ins SVD) cells (Cell Titer-Glo); assay type: cell-based; conditions: Mus musculus
Method: as §1, §2, §3, §4, §5, §6

[3] = biological target: EGFR ins SVD (insertion of SVD between D770 and N771) (Homo sapiens, UniProt P00533, INS767SVD); experiment: Exon 20-Mutant-EGFR(D770_N771insSVD) kinase assay (TR-FRET); assay type: biochemical; conditions: Table 9; read-out: mutEGFR (D770_N771insSVD) kinase assay IC50
Method: Exon 20-Mutant-EGFR(D770_N771insSVD) Kinase Assay
Inhibitory activity of compounds of the present invention against an Epidermal Growth Factor Receptor (EGFR) with an insertion of the amino acids sequence SVD between D770 and N771 was quantified employing the TR-FRET based kinase activity assay as described in the following paragraphs.
For the assay 50 nl of a 100-fold concentrated solution of the test compound in DMSO was pipetted into either a black low volume 384 well microtiter plate or a black 1536 well microtiter plate (both Greiner Bio-One, Frickenhausen, Germany), 2 μl of a solution of EGFR in aqueous assay buffer [50 mM Hepes pH 7.0, 10 mM MgCl2, 1 mM dithiothreitol, 0.5 mM EGTA, 0.3 mM activated sodium ortho-vanadate, 0.005% (w/v) bovine serum albumin, 0.005% (v/v) Tween-20] were added and the mixture was incubated for 15 min at 22° C. to allow pre binding of the test compounds to the enzyme before the start of the kinase reaction. […] The concentration of EGFR was adjusted depending of the activity of the enzyme lot and was chosen appropriate to have the assay in the linear range, typical concentration was 15 pg/μl. The reaction was stopped by the addition of 3 μl of a solution of HTRF detection reagents (83.3 nM streptavidine-XL665 [Cisbio Bioassays, Codolet, France] and 1.67 nM PT66-Tb-Cryptate, a terbium-cryptate labelled anti-phospho-tyrosine antibody from Cisbio Bioassays [instead of the PT66 Tb cryptate PT66 Eu Chelate from Perkin Elmer can also be used]) in an aqueous EDTA-solution (133.3 mM EDTA, 0.2% (w/v) bovine serum albumin in 50 mM HEPES pH 7.5).
The resulting mixture was incubated 1 h at 22° C. to allow the binding of the biotinylated phosphorylated peptide to the streptavidine-XL665 and the PT66-Tb-Cryptate. Subsequently the amount of phosphorylated substrate was evaluated by measurement of the resonance energy transfer from the PT66-Tb-Cryptate to the streptavidine-XL665.

[4] = BaF3, 48 h, Table 10, plated with 10 ng/mL EGF
[5] = BaF3, 48 h, Table 10, plated without EGF
[6] = BaF3, Table 10, plated with 10 ng/mL EGF, 48 h
[7] = BaF3, Table 10, plated without EGF, 48 h

Chain of EGFR ins SVD (insertion of SVD between D770 and N771) (P00533 with tags, fused parts or gaps INS767SVD limits assumed): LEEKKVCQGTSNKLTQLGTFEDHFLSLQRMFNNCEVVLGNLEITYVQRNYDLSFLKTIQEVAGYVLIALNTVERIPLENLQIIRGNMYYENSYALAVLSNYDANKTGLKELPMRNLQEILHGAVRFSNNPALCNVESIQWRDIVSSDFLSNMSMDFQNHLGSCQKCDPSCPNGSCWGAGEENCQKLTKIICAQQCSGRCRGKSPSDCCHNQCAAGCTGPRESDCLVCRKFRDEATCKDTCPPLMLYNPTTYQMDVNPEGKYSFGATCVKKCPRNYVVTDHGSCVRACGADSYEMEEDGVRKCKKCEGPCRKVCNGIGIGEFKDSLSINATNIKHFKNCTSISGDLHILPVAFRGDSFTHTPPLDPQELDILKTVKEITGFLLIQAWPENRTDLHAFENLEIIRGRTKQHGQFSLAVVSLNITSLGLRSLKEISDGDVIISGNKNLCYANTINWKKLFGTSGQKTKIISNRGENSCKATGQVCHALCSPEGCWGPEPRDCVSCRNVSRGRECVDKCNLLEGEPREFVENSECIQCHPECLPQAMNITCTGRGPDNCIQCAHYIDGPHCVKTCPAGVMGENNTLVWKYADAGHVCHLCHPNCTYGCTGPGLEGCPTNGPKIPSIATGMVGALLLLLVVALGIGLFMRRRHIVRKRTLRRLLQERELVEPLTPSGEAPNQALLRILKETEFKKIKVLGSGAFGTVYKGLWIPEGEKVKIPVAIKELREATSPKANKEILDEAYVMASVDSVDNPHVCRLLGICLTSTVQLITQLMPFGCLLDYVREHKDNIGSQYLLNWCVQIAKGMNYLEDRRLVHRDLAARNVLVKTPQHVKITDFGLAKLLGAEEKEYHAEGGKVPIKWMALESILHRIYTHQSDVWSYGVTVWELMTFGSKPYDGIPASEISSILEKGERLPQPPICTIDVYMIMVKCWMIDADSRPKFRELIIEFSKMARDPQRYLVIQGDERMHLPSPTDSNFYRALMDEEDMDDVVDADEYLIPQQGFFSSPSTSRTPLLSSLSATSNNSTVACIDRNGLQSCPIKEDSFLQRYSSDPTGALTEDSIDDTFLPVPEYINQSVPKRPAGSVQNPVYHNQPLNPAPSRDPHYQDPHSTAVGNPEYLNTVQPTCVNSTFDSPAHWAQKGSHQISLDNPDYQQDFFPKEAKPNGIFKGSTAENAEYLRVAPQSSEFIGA

Compound | IC50 [1, 4] [nM] | IC50 [2, 5] [nM] | IC50 [3] [nM] | IC50 [1, 6] [nM] | IC50 [2, 7] [nM]
CN1CCC[C@H]1COc1cnccc1-c1[nH]c2c(c1Nc1cccc(Cl)c1OC(F)F)C(=O)NCC2 [Example 50, 3-[3-chloro-2-(difluoromethoxy)anilino]-2-(3-{[(2S)-1-methylpyrrolidin-2-yl]methoxy}pyridin-4-yl)-1,5,6,7-tetrahydro-4H-pyrrolo[3,2-c]pyridin-4-one] | 2100 | 60.9 | 1.26 | – | –
Cc1c(F)cc(F)cc1Nc1c(-c2ccncc2OC[C@@H]2CCCN2C)[nH]c2c1C(=O)NCC2 [Example 51, 3-(3,5-difluoro-2-methylanilino)-2-(3-{[(2S)-1-methylpyrrolidin-2-yl]methoxy}pyridin-4-yl)-1,5,6,7-tetrahydro-4H-pyrrolo[3,2-c]pyridin-4-one] | – | – | 0.732 | 3290 | 107
Cc1c(Cl)cccc1Nc1c(-c2ccncc2OCCN(C)C)[nH]c2c1C(=O)NCC2 [Example 52, 3-(3-chloro-2-methylanilino)-2-{3[2-(dimethylamino)ethoxy]pyridin-4-yl}1,5,6,7-tetrahydro-4H-pyrrolo[3,2-c]pyridin-4-one] | 834 | 29.1 | 0.55 | – | –
COc1c(F)cccc1Nc1c(-c2ccncc2OCCN(C)C)[nH]c2c1C(=O)NCC2 [Example 53, 2-{3-[2-(dimethylamino)ethoxy]pyridin-4-yl}-3-(3-fluoro-2-methoxyanilino)-1,5,6,7-tetrahydro-4H-pyrrolo[3,2-c]pyridin-4-one] | 804 | 31.1 | 0.332 | – | –
COc1c(Cl)cccc1Nc1c(-c2ccncc2OCCN(C)C)[nH]c2c1C(=O)NCC2 [Example 54, 3-(3-chloro-2-methoxyanilino)-2-{3-[2-(dimethylamino)ethoxy]pyridin-4-yl}-1,5,6,7-tetrahydro-4H-pyrrolo[3,2-c]pyridin-4-one] | 1300 | 37.5 | 0.912 | – | –
Cc1c(F)cc(F)cc1Nc1c(-c2ccncc2OCCN(C)C)[nH]c2c1C(=O)NCC2 [Example 55, 3-(3,5-difluoro-2-methylanilino)-2-{3-[2-(dimethylamino)ethoxy]pyridin-4-yl}-1,5,6,7-tetrahydro-4H-pyrrolo[3,2-c]pyridin-4-one] | 2830 | 303 | 0.465 | – | –
Cc1c(F)cccc1Nc1c(-c2ccncc2OCCN(C)C)[nH]c2c1C(=O)NCC2 [Example 56, 2-{3-[2-(dimethylamino)ethoxy]pyridin-4-yl}-3-(3-fluoro-2-methylanilino)-1,5,6,7-tetrahydro-4H-pyrrolo[3,2-c]pyridin-4-one] | 1900 | 242 | 0.562 | – | –
COc1c(F)cccc1Nc1c(-c2ccncc2OCCC(C)(C)OC)[nH]c2c1C(=O)NCC2 [Example 57, 3-(3-fluoro-2-methoxyanilino)-2-[3-(3-methoxy-3-methylbutoxy)pyridin-4-yl]1,5,6,7-tetrahydro-4H-pyrrolo[3,2-c]pyridin-4-one] | 535 | 14.7 | 0.228 | – | –
CCOC(C)(C)COc1cnccc1-c1[nH]c2c(c1Nc1cccc(F)c1OC)C(=O)NCC2 [Example 58, 2-[3-(2-ethoxy-2-methylpropoxy)pyridin-4-yl]-3-(3-fluoro-2-methoxyanilino)-1,5,6,7-tetrahydro-4H-pyrrolo[3,2-c]pyridin-4-one] | 561 | 18.6 | 0.113 | – | –
COc1c(Cl)cccc1Nc1c(-c2ccncc2OCC(C)(C)O)[nH]c2c1C(=O)NCC2 [Example 59, 3-(3-chloro-2-methoxyanilino)-2-[3-(2-hydroxy-2-methylpropoxy)pyridin-4-yl]-1,5,6,7-tetrahydro-4H-pyrrolo[3,2-c]pyridin-4-one] | 542 | 17.7 | < 0.0725 | – | –
Cc1c(Cl)cccc1Nc1c(-c2ccncc2OCC(C)(C)N(C)C)[nH]c2c1C(=O)NCC2 [Example 60, 3-(3-chloro-2-methylanilino)-2-{3-[2-(dimethylamino)-2-methylpropoxy]pyridin-4-yl}-1,5,6,7-tetrahydro-4H-pyrrolo[3,2-c]pyridin-4-one] | 1750 | 38.6 | 0.695 | – | –
Cc1c(F)cccc1Nc1c(-c2ccncc2OCC(C)(C)N(C)C)[nH]c2c1C(=O)NCC2 [Example 61, 2-{3-[2-(dimethylamino)-2-methylpropoxy]pyridin-4-yl}-3-(3-fluoro-2-methylanilino)-1,5,6,7-tetrahydro-4H-pyrrolo[3,2-c]pyridin-4-one] | 1460 | 88.9 | 1.12 | – | –
Cc1c(F)cc(F)cc1Nc1c(-c2ccncc2OCC(C)(C)N(C)C)[nH]c2c1C(=O)NCC2 [Example 62, 3-(3,5-difluoro-2-methylanilino)-2-{3-[2-(dimethylamino)-2-methylpropoxy]pyridin-4-yl}-1,5,6,7-tetrahydro-4H-pyrrolo[3,2-c]pyridin-4-one] | 2760 | 166 | 0.663 | – | –
COc1c(Cl)cccc1Nc1c(-c2ccncc2OCC2CCCCN2C)[nH]c2c1C(=O)NCC2 (stereo not drawn) [Example 63, 3-(3-chloro-2-methoxyanilino)-2-(3-{[1-methylpiperidin-2-yl]methoxy}pyridin-4-yl)-1,5,6,7-tetrahydro-4H-pyrrolo[3,2-c]pyridin-4-one] | 485 | 12.3 | 0.509 | – | –
CN(C)CCOc1cnccc1-c1[nH]c2c(c1Nc1cccc(F)c1OC(F)F)C(=O)NCC2 [Example 64, 3-[2-(difluoromethoxy)-3-fluoroanilino]-2-{3-[2-(dimethylamino)ethoxy]pyridin-4-yl}-1,5,6,7-tetrahydro-4H-pyrrolo[3,2-c]pyridin-4-one] | 1890 | 121 | 0.443 | – | –
COc1c(Cl)cccc1Nc1c(-c2ccncc2OCC2CCCCO2)[nH]c2c1C(=O)NCC2 (stereo not drawn) [Example 68] | 109 | 2.94 | 0.115 | – | –
O=C1NCCc2[nH]c(-c3ccncc3OCC3CCCCO3)c(Nc3cccc(Cl)c3Cl)c21 (stereo not drawn) [Example 69, 3-(2,3-dichloroanilino)-2-{3-[(oxan-2-yl)methoxy]pyridin-4-yl}-1,5,6,7-tetrahydro-4H-pyrrolo[3,2-c]pyridin-4-one] | 290 | 12.4 | 0.106 | – | –
O=C1NCCc2[nH]c(-c3ccncc3OC[C@@H]3CCCO3)c(Nc3cccc(Cl)c3Cl)c21 [Example 70, 3-(2,3-dichloroanilino)-2-(3-{[(2S)-oxolan-2-yl]methoxy}pyridin-4-yl)-1,5,6,7-tetrahydro-4H-pyrrolo[3,2-c]pyridin-4-one] | 297 | 16.1 | 0.0918 | – | –
CN1CCC[C@H]1COc1cnccc1-c1[nH]c2c(c1Nc1cccc(Cl)c1Cl)C(=O)NCC2 [Example 71, 3-(2,3-dichloroanilino)-2-(3-{[(2S)-1-methylpyrrolidin-2-yl]methoxy}pyridin-4-yl)-1,5,6,7-tetrahydro-4H-pyrrolo[3,2-c]pyridin-4-one] | 781 | 20.2 | 0.258 | – | –
COc1c(F)cccc1Nc1c(-c2ccncc2OCC(C)(C)O)[nH]c2c1C(=O)NCC2 [Example 72, 3-(3-fluoro-2-methoxyanilino)-2-[3-(2-hydroxy-2-methylpropoxy)pyridin-4-yl]-1,5,6,7-tetrahydro-4H-pyrrolo[3,2-c]pyridin-4-one] | 1010 | 67.7 | 0.144 | – | –
CC(C)(O)COc1cnccc1-c1[nH]c2c(c1Nc1cccc(F)c1OC(F)F)C(=O)NCC2 [Example 73, 3-[2-(difluoromethoxy)-3-fluoroanilino]-2-[3-(2-hydroxy-2-methylpropoxy)pyridin-4-yl]-1,5,6,7-tetrahydro-4H-pyrrolo[3,2-c]pyridin-4-one] | 2520 | 416 | 0.167 | – | –
COc1c(F)cccc1Nc1c(-c2ccncc2OCC(C)(C)N(C)C)[nH]c2c1C(=O)NCC2 [Example 74, 2-{3-[2-(dimethylamino)-2-methylpropoxy]pyridin-4-yl}-3-(3-fluoro-2-methoxyanilino)-1,5,6,7-tetrahydro-4H-pyrrolo[3,2-c]pyridin-4-one] | 4070 | 97.9 | 0.865 | – | –
COc1c(F)cccc1Nc1c(-c2ccncc2OCC(C)(C)N2CCOCC2)[nH]c2c1C(=O)NCC2 [Example 75, 3-(3-fluoro-2-methoxyanilino)-2-{3-[2-methyl-2-(morpholin-4-yl)propoxy]pyridin-4-yl}-1,5,6,7-tetrahydro-4H-pyrrolo[3,2-c]pyridin-4-one] | – | – | 0.903 | 2360 | 98
CC(C)(COc1cnccc1-c1[nH]c2c(c1Nc1cccc(F)c1OC(F)F)C(=O)NCC2)N1CCOCC1 [Example 76, 3-[2-(difluoromethoxy)-3-fluoroanilino]-2-{3-[2-methyl-2-(morpholin-4-yl)propoxy]pyridin-4-yl}-1,5,6,7-tetrahydro-4H-pyrrolo[3,2-c]pyridin-4-one] | – | – | 0.845 | 2090 | 250
